Test results as given in patent US8802597B2, “Herbicidal pyrimidines” (E I du Pont de Nemours and Company, priority 2003, dated 2014).

Tests used:
Experiment in all cases: Test C pre/postemergence
Format in all cases: in vivo
[1] = test system: Surinam grass (Brachiaria decumbens); settings: for Surinam Grass plant response rating: scale 0 to 100 (0 no effect, 100 complete control); for Plant response rating, Surinam Grass: scale 0 to 100
Outline: (§1)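 Applications: preemergence onto seeded soil and postemergence onto 1- to 4-leaf seedlings, compound carried in non-phytotoxic solvent plus surfactant. Kept in greenhouse 12 to 14 days. Scored visually relative to untreated controls, 0 (no effect) to 100 (complete control).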

[2] = test system: cocklebur (Xanthium strumarium); settings: for Cocklebur plant response rating: scale 0 to 100 (0 no effect, 100 complete control)
Outline: as §1

[3] = test system: crabgrass (Digitaria sanguinalis); settings: for Crabgrass plant response rating: scale 0 to 100 (0 no effect, 100 complete control)
Outline: as §1

[4] = test system: giant foxtail (Setaria faberii); settings: for Foxtail, Giant plant response rating: scale 0 to 100 (0 no effect, 100 complete control)
Outline: as §1

[5] = test system: johnsongrass (Sorghum halepense); settings: for Johnsongrass plant response rating: scale 0 to 100 (0 no effect, 100 complete control)
Outline: as §1

kochia (Kochia scoparia) = settings: Postemergence; for Kochia plant response rating: scale 0 to 100 (0 no effect, 100 complete control); for Plant response rating, Kochia: scale 0 to 100
Outline: as §1

[6] = test system: morningglory (Ipomoea coccinea); settings: for Morningglory plant response rating: scale 0 to 100 (0 no effect, 100 complete control); for Plant response rating, Morningglory: scale 0 to 100
Outline: as §1

[7] = test system: pigweed (Amaranthus retroflexus); settings: for Pigweed plant response rating: scale 0 to 100 (0 no effect, 100 complete control)
Outline: as §1

[8] = test system: velvetleaf (Abutilon theophrasti); settings: for Velvetleaf plant response rating: scale 0 to 100 (0 no effect, 100 complete control)
Outline: as §1

[9] = test system: woolly cupgrass (Eriochloa villosa); settings: for Cupgrass, Woolly plant response rating: scale 0 to 100 (0 no effect, 100 complete control)
Outline: as §1

[10] = test system: yellow nutsedge (Cyperus esculentus); settings: for Nutsedge, Yellow plant response rating: scale 0 to 100 (0 no effect, 100 complete control)
Outline: as §1

[11] = test system: common (oilseed) sunflower (Helianthus annuus); settings: Preemergence
Outline: as §1

[12] = Postemergence, 250 g ai/ha, scale 0 to 100
[13] = Postemergence, 500 g ai/ha, scale 0 to 100
[14] = Preemergence, 62 g ai/ha, scale 0 to 100, 0 no effect, 100 complete control
[15] = Preemergence, 125 g ai/ha, scale 0 to 100
[16] = Preemergence, 250 g ai/ha, scale 0 to 100
[17] = Preemergence, 500 g ai/ha, scale 0 to 100

SMILES: CCOC(=O)c1nc(-c2ccc(Cl)cc2)nc(N)c1Br [Compound 37]
- Surinam Grass plant response rating ([1]; Postemergence, 62 g ai/ha): 0
- Surinam Grass plant response rating ([1]; Postemergence, 125 g ai/ha): 0
- Plant response rating, Surinam Grass ([1]; Postemergence, 250 g ai/ha): 0
- Plant response rating, Surinam Grass ([1]; Postemergence, 500 g ai/ha): 0
- Cocklebur plant response rating ([2]; Postemergence, 62 g ai/ha): 0
- Cocklebur plant response rating ([2]; Postemergence, 125 g ai/ha): 95
- Plant response rating, Cocklebur [2, 12]: 95
- Plant response rating, Cocklebur [2, 13]: 95
- Crabgrass plant response rating ([3]; Postemergence, 62 g ai/ha): 0
- Crabgrass plant response rating ([3]; Postemergence, 125 g ai/ha): 15
- Plant response rating, Crabgrass [3, 12]: 40
- Plant response rating, Crabgrass [3, 13]: 60
- Foxtail, Giant plant response rating ([4]; Postemergence, 62 g ai/ha): 0
- Foxtail, Giant plant response rating ([4]; Postemergence, 125 g ai/ha): 0
- Plant response rating, Foxtail, Giant [4, 12]: 40
- Plant response rating, Foxtail, Giant [4, 13]: 45
- Johnsongrass plant response rating ([5]; Postemergence, 62 g ai/ha): 0
- Johnsongrass plant response rating ([5]; Postemergence, 125 g ai/ha): 20
- Plant response rating, Johnsongrass [5, 13]: 55
- Kochia plant response rating (kochia (Kochia scoparia); 62 g ai/ha): 0
- Kochia plant response rating (kochia (Kochia scoparia); 125 g ai/ha): 90
- Plant response rating, Kochia (kochia (Kochia scoparia); 250 g ai/ha): 95
- Plant response rating, Kochia (kochia (Kochia scoparia); 500 g ai/ha): 95
- Morningglory plant response rating ([6]; Postemergence, 62 g ai/ha): 0
- Morningglory plant response rating ([6]; Postemergence, 125 g ai/ha): 65
- Plant response rating, Morningglory ([6]; Postemergence, 250 g ai/ha): 80
- Plant response rating, Morningglory ([6]; Postemergence, 500 g ai/ha): 95
- Pigweed plant response rating ([7]; Postemergence, 62 g ai/ha): 0
- Pigweed plant response rating ([7]; Postemergence, 125 g ai/ha): 95
- Plant response rating, Pigweed [7, 12]: 100
- Plant response rating, Pigweed [7, 13]: 100
- Velvetleaf plant response rating ([8]; Postemergence, 62 g ai/ha): 0
- Velvetleaf plant response rating ([8]; Postemergence, 125 g ai/ha): 85
- Plant response rating, Velvetleaf [8, 12]: 90
- Plant response rating, Velvetleaf [8, 13]: 95
- Cupgrass, Woolly plant response rating ([9]; Postemergence, 62 g ai/ha): 0
- Cupgrass, Woolly plant response rating ([9]; Postemergence, 125 g ai/ha): 0
- Plant response rating, Cupgrass, Woolly [9, 12]: 0
- Plant response rating, Cupgrass, Woolly [9, 13]: 45
- Nutsedge, Yellow plant response rating ([10]; Postemergence, 62 g ai/ha): 0
- Nutsedge, Yellow plant response rating ([10]; Postemergence, 125 g ai/ha): 0
- Plant response rating, Nutsedge, Yellow [10, 12]: 0
- Plant response rating, Nutsedge, Yellow [10, 13]: 20

SMILES: CCOC(=O)c1nc(C2CC2)nc(N=CN(C)C)c1Br [Compound 40]
- Plant response rating, Surinam Grass ([1]; Preemergence, 125 g ai/ha): 0
- Plant response rating, Surinam Grass ([1]; Preemergence, 250 g ai/ha): 10
- Plant response rating, Surinam Grass ([1]; Preemergence, 500 g ai/ha): 90
- Plant response rating, Cocklebur [2, 14]: 5
- Plant response rating, Cocklebur [2, 15]: 70
- Plant response rating, Cocklebur [2, 16]: 90
- Plant response rating, Cocklebur [2, 17]: 100
- Plant response rating, Sunflower ([11]; 62 g ai/ha, scale 0 to 100, 0 no effect, 100 complete control): 5
- Plant response rating, Sunflower ([11]; 125 g ai/ha, scale 0 to 100): 90
- Plant response rating, Sunflower ([11]; 250 g ai/ha, scale 0 to 100): 90
- Plant response rating, Sunflower ([11]; 500 g ai/ha, scale 0 to 100): 95
- Plant response rating, Crabgrass [3, 14]: 5
- Plant response rating, Crabgrass [3, 17]: 100
- Plant response rating, Foxtail, Giant [4, 14]: 0
- Plant response rating, Foxtail, Giant [4, 15]: 0
- Plant response rating, Foxtail, Giant [4, 16]: 30
- Plant response rating, Foxtail, Giant [4, 17]: 35
- Plant response rating, Johnsongrass [5, 14]: 0
- Plant response rating, Johnsongrass [5, 15]: 80
- Plant response rating, Johnsongrass [5, 16]: 80
- Plant response rating, Johnsongrass [5, 17]: 95
- Plant response rating, Morningglory ([6]; Preemergence, 125 g ai/ha): 90
- Plant response rating, Morningglory ([6]; Preemergence, 250 g ai/ha): 90
- Plant response rating, Morningglory ([6]; Preemergence, 500 g ai/ha): 100
- Plant response rating, Pigweed [7, 14]: 20
- Plant response rating, Pigweed [7, 15]: 100
- Plant response rating, Pigweed [7, 16]: 100
- Plant response rating, Pigweed [7, 17]: 100
- Plant response rating, Velvetleaf [8, 14]: 0
- Plant response rating, Velvetleaf [8, 15]: 70
- Plant response rating, Velvetleaf [8, 16]: 90
- Plant response rating, Velvetleaf [8, 17]: 100
- Plant response rating, Cupgrass, Woolly [9, 14]: 5
- Plant response rating, Cupgrass, Woolly [9, 15]: 5
- Plant response rating, Cupgrass, Woolly [9, 16]: 70
- Plant response rating, Cupgrass, Woolly [9, 17]: 95
- Plant response rating, Nutsedge, Yellow [10, 14]: 0
- Plant response rating, Nutsedge, Yellow [10, 15]: 0
- Plant response rating, Nutsedge, Yellow [10, 16]: 0
- Plant response rating, Nutsedge, Yellow [10, 17]: 0

SMILES: CC(=O)NN=Cc1nc(C2CC2)nc(N)c1Br [Compound 51]
- Surinam Grass plant response rating ([1]; Postemergence, 62 g ai/ha): 0
- Surinam Grass plant response rating ([1]; Postemergence, 125 g ai/ha): 0
- Plant response rating, Surinam Grass ([1]; Postemergence, 250 g ai/ha): 0
- Plant response rating, Surinam Grass ([1]; Postemergence, 500 g ai/ha): 0
- Cocklebur plant response rating ([2]; Postemergence, 62 g ai/ha): 65
- Cocklebur plant response rating ([2]; Postemergence, 125 g ai/ha): 65
- Plant response rating, Cocklebur [2, 12]: 70
- Plant response rating, Cocklebur [2, 13]: 85
- Crabgrass plant response rating ([3]; Postemergence, 62 g ai/ha): 0
- Crabgrass plant response rating ([3]; Postemergence, 125 g ai/ha): 0
- Plant response rating, Crabgrass [3, 12]: 0
- Plant response rating, Crabgrass [3, 13]: 45
- Foxtail, Giant plant response rating ([4]; Postemergence, 62 g ai/ha): 0
- Foxtail, Giant plant response rating ([4]; Postemergence, 125 g ai/ha): 0
- Plant response rating, Foxtail, Giant [4, 12]: 0
- Plant response rating, Foxtail, Giant [4, 13]: 0
- Johnsongrass plant response rating ([5]; Postemergence, 62 g ai/ha): 0
- Plant response rating, Johnsongrass [5, 12]: 0
- Plant response rating, Johnsongrass [5, 13]: 0
- Kochia plant response rating (kochia (Kochia scoparia); 62 g ai/ha): 15
- Kochia plant response rating (kochia (Kochia scoparia); 125 g ai/ha): 60
- Plant response rating, Kochia (kochia (Kochia scoparia); 250 g ai/ha): 85
- Plant response rating, Kochia (kochia (Kochia scoparia); 500 g ai/ha): 95
- Morningglory plant response rating ([6]; Postemergence, 62 g ai/ha): 80
- Morningglory plant response rating ([6]; Postemergence, 125 g ai/ha): 80
- Plant response rating, Morningglory ([6]; Postemergence, 250 g ai/ha): 85
- Plant response rating, Morningglory ([6]; Postemergence, 500 g ai/ha): 100
- Pigweed plant response rating ([7]; Postemergence, 62 g ai/ha): 65
- Pigweed plant response rating ([7]; Postemergence, 125 g ai/ha): 70
- Plant response rating, Pigweed [7, 12]: 80
- Plant response rating, Pigweed [7, 13]: 85
- Velvetleaf plant response rating ([8]; Postemergence, 62 g ai/ha): 0
- Velvetleaf plant response rating ([8]; Postemergence, 125 g ai/ha): 20
- Plant response rating, Velvetleaf [8, 12]: 60
- Plant response rating, Velvetleaf [8, 13]: 65
- Cupgrass, Woolly plant response rating ([9]; Postemergence, 62 g ai/ha): 0
- Cupgrass, Woolly plant response rating ([9]; Postemergence, 125 g ai/ha): 0
- Plant response rating, Cupgrass, Woolly [9, 12]: 0
- Plant response rating, Cupgrass, Woolly [9, 13]: 0
- Nutsedge, Yellow plant response rating ([10]; Postemergence, 62 g ai/ha): 0
- Nutsedge, Yellow plant response rating ([10]; Postemergence, 125 g ai/ha): 0
- Plant response rating, Nutsedge, Yellow [10, 12]: 0
- Plant response rating, Nutsedge, Yellow [10, 13]: 0
